Reference: patent US20080242682A1, “Preventive or Therapeutic Agent for Sleep Disorder” (Takeda Pharmaceutical Company Limited, priority 2004, published 2008)

How the values were obtained:
Cat = assay: Experiment 2: effect of combined use of compound A and gabapentin (GBP) on sleep wakefulness of cat (sleep electroencephalogram); type: in vivo; conditions: oral capsule, 8 hours after administration, compound A 0.1 mg/kg, gabapentin 10 mg/kg
Protocol: Used animals: 4 Siamese cats (purchased from Narc co.), 2 European shorthairs (purchased from Nisseiken co. Ltd.) and 1 mongrel cat (purchased from Narc co.) were used.
Under pentobarbital anesthesia, the following electrode and the like were implanted. An antibiotic was administered to prevent bacterial infection, and taming to cage for measuring electroencephalogram was started from 3 to 4 days after the operation. Measurement of electroencephalogram was carried out after 1 to 2 weeks of taming. • electrode for recording electroencephalogram in frontal lobe of cerebral cortex, frontal lobe and hippocampus • electrode for electrooculogram in orbit bone • stainless wire for recording electromyogram in dorsal cervical muscle […]
After being attached the electrodes for measurement from about 8:30 in the morning, the cats were placed in test box. Administration was conducted by 9:55 to 10:05 in the morning, and the sleep electroencephalogram for 8 hours after administration was measured.
Electroencephalogram data was obtained using Synafit 2500 of NEC Saneisha. […] In addition, the stage judged to be at slow-wave sleep was extracted, frequency analysis was carried out, and power spectrum during slow-wave sleep was calculated. […]

Macaca fascicularis = assay: Experiment 1: sleep electroencephalogram (sleep latency and sleep duration in the night) in monkeys after oral administration; type: in vivo; conditions: female Macaca fascicularis, compound A 0.3 mg/kg, ritanserin 1 mg/kg; for SWS (slow-wave sleep) duration in breakdown of sleep duration / total sleep duration: 12 hours from lights-out to lights-on, drug-treated value; for sleep latency of LS / sleep latency of SWS: before lights-out, drug-treated value (vs vehicle, crossover)
Protocol: 3 Female Macaca fascicularis were used for experiment. Drugs were administered according to crossover design. Test animals were operated to place an electrode to measure electroencephalogram, and were naturalized fully to test cage. The test animals were raised under light-dark cycle of 12 hour-light period and 12 hour-dark period (light period is from 6:00 to 18:00).
The dose of compound A was 0.3 mg/kg, and the dose of ritanserin was 1 mg/kg, and these were suspended in 0.5% methylcellulose solution to make dosage of 1 ml/kg. As control, 0.5% methylcellulose solution was used. Administration was conducted orally using transnasal catheter 5 to 10 minutes before extinction (17:50-17:55).
Measurement items were electroencephalogram, ocular movement and myogenic potential, and behavior was observed using infrared camera. Measurement was carried out for 12 hours from lights-out (18:00) to lights-on (6:00).
Data analysis was carried out for sleep latency and total sleep duration in the night.

Compound	total slow-wave sleep duration (Cat)	SWS (slow-wave sleep) duration in breakdown of sleep duration (Macaca fascicularis)	total sleep duration (Macaca fascicularis)	sleep latency of LS (Macaca fascicularis)	sleep latency of SWS (Macaca fascicularis)
CCC(=O)NCC[C@@H]1CCc2ccc3c(c21)CCO3 [compound A, (S)—N-[2-(1,6,7,8-tetrahydro-2H-indeno[5,4-b]furan-8-yl)ethyl]propionamide]	124.9 min	135 min	610 min	13.3 min	31.3 min
Cc1nc2sccn2c(=O)c1CCN1CCC(=C(c2ccc(F)cc2)c2ccc(F)cc2)CC1 [ritanserin, reference compound]	–	249 min	573 min	12.0 min	39.3 min
